According to US6441053B1, “Inhibitors of glycogen synthase kinase-3 and methods for identifying and using the same” (The Trustees of the University of Pennsylvania, priority 1996, dated 2002):
pIC50: −log10 of the molar value. Where two headings read alike, the source gives them in different places.

Key:
GSK-3β = GSK-3β (Oryctolagus cuniculus, UniProt G1T8E2); assay: In vitro GSK-3β activity assay (32P incorporation into substrate); assay type: biochemical, rabbit; settings: for inhibition of phosphorylation of peptide substrate by GSK-3β: 20 mM of the salt in the assay mixture; for GSK-3β phosphorylation of I-2: 20 mM salt, GS-2 and τ protein phosphorylation not inhibited
Description: GSK-3β was assayed as described in the following paragraph using 0.5-1.0 units of GSK-3β per assay. […] GSK-3 buffer comprises 20 mM Tris-HCl, 10 mM MgCl2, 5 mM dithiothreitol, and has a pH of 7.5 at 20° C.
The assay mixture comprised 1×GSK-3 buffer, an amount of a kinase enzyme corresponding to 0.5-1.0 unit of activity, a substrate, and 200 μM [γ^32P]-ATP (approximately 500 μCi/μmol). The assay mixture was incubated for a selected period of time following which incorporation of ^32P into the substrate was determined by standard methods.
When I-2 was used as the substrate for […] in the assay, I-2 was present at a concentration of 50 μg/ml. […] The activities of protein kinase A (PKA), mitogen-activating protein kinase (ERK-1/MAP kinase), and casein kinase II (CKII) were assayed under conditions similar to those used to assay […] activity, except that β-mercaptoethanol was included in the PKA assays.

Xenopus embryos = assay: Second axis formation in Xenopus embryos injected with DN-GSK-3 mRNA with or without myo-inositol; assay type: in vivo, Xenopus laevis
Description: mRNA specifying DN-GSK-3 was microinjected into the subequatorial region of a ventral-vegetal blastomere in an embryo at the 16-cell stage. A volume of either 5 nl or 10 nl was microinjected depending upon the concentration of mRNA in the solution being microinjected. The same procedure was used to microinject myo-inositol into an embryo. In most experiments, 10 embryos were harvested at stage 8 to assess the level of DN-GSK-3protein expressed from the injected mRNA, and the level of DN-GSK-3protein in other embryos was assessed at stage 30-35.

[1] = biological target: T1, inositol monophosphatase (IMPase) (Xenopus laevis, UniProt P29219); assay: IMPase activity in vivo in injected ventral-vegetal blastomeres; settings: 10 nl of 5 mM L-690,330 microinjected into blastomeres
T1 construct: The thirty embryos were then lysed in 300 μl of IMPB; endogenous in cells; host or cells: Xenopus embryos (32-cell stage lysate supernatant; 8- to 16-cell stage embryos injected in vivo)
Description: Following dilution, 10 nl of the diluted ^3H-inositol-1-phosphate solution was injected into a single ventral-vegetal blastomere of an embryo which was at the 8- to 16-cell stage. […] The lysate was prepared and applied to Dowex columns as described above.

IMPase = IMPase (Homo sapiens, UniProt P29218); settings: Atack et al., 1993; cited from earlier work
[2] = biological target: T1, inositol monophosphatase (IMPase); assay: IMPase activity in lysates prepared from Xenopus embryos; assay type: biochemical
Description: Thirty Xenopus embryos at the 32-cell stage were washed with 1 ml of 50 mM Tris, pH 7.8, 250 mM KCl, 3 mM MgCl2 (IMPB). The thirty embryos were then lysed in 300 μl of IMPB. The lysate was centrifuged for 5 minutes at 20,000×g at 4° C. and the resulting lysate supernatant was recovered. […] Each lysate supernatant mixture was then incubated at room temperature for 5 minutes. One μl of ^3H-inositol-1-phosphate was added to each lysate supernatant mixture, and the incubation was continued for an additional 25 minutes. Each lysate supernatant mixture was then diluted with 1.0 ml of 0.1×MMR, boiled for 5 minutes, and applied to Dowex columns as described (Berridge et al., 1983, Biochem. J. 212:473-482). Inositol was not retained by the Dowex column, and inositol-1-phosphate was eluted by application of 3 ml of 0.1 M formic acid/1.5 M ammonium formate (Berridge et al., 1983, supra). Each assay was repeated two to four times, and similar results were obtained among all replicates.

Xenopus laevis embryo = assay: Dorsalization and development of treated or microinjected Xenopus embryos; assay type: in vivo
Description: Xenopus eggs were fertilized in vitro according to well established protocols (Peng, 1991, in Appendix A of Methods in Cell Biology, Kay et al., eds., Academic Press Inc, San Diego). Microinjection of embryos was performed using embryos at the 1-cell to 32-cell stage, and a volume of 5-10 nl was injected into each embryo.
L-690,330 was dissolved in water to form a solution having a concentration of L-690,330 in the range of 0.1 to 10 mM, and 5 to 10 nl of the L-690,330 solution was injected into the ventral vegetal region of 4, 8, 16, and 32 cell embryos. All four cells of individual 4-cell embryos were injected in separate experiments.

T1 sequence (P29219 whole entry): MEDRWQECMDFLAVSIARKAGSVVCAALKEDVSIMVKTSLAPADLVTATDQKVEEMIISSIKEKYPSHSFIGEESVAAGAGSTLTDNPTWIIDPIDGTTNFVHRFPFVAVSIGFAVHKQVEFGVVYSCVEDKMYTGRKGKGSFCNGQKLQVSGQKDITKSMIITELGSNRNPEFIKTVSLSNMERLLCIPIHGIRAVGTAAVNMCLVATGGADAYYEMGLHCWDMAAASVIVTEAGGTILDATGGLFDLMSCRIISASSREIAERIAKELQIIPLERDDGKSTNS
Sequence of GSK-3β (G1T8E2 1-432): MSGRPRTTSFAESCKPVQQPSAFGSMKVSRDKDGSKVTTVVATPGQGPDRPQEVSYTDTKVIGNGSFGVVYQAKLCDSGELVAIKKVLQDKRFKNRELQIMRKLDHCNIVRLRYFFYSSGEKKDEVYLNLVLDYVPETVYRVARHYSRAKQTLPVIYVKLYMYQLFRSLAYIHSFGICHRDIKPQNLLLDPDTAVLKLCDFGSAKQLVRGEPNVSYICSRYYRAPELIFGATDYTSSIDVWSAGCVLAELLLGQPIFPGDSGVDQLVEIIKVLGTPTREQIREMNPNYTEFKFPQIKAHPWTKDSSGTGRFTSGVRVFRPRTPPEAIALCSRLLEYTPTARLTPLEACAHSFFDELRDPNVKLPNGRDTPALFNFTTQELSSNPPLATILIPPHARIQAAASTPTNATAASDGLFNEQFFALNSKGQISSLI
Sequence of IMPase (P29218 whole entry): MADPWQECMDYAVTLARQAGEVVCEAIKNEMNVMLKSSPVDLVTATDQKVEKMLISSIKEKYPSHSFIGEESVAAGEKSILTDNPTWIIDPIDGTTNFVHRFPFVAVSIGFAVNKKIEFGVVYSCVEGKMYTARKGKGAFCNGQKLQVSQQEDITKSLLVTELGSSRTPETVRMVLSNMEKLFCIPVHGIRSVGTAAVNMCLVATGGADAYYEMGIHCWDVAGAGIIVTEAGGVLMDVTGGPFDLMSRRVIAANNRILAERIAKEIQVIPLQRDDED

Q: For Cl.N [NH4Cl], which “inhibition of phosphorylation of peptide substrate by GSK-3β” value (from here on “inhibition of phosphorylation … by GSK-3β”) (GSK-3β) is on record?
A: Its value is “Little inhibition”.

Q: With [Cl-].[Na+] [NaCl] as the compound, how does the “inhibition of phosphorylation … by GSK-3β” value (GSK-3β) read?
A: The value was “Little inhibition”.

Q: And the “GSK-3β phosphorylation of I-2” value (GSK-3β)?
A: The value was “partially inhibited”.

Q: For O[C@H]1[C@H](O)[C@@H](O)[C@H](O)[C@@H](O)[C@H]1O [myo-inositol], which “effect of coinjection on second axis induction by DN-GSK-3” value (Xenopus embryos; coinjected with DN-GSK-3 mRNA into ventral-vegetal cell of 16-cell embryos) is on record?
A: The value was “clearly reduced the frequency and the extent of second axis induction”.

Q: And the “effect on synthesis of DN-GSK-3 protein” value (Xenopus embryos; in vivo)?
A: The value was “did not inhibit”.

Q: Which “inhibition of phosphorylation … by GSK-3β” value (GSK-3β) does the source give for [Cl-].[K+] [KCl] here?
A: Its value is “Little inhibition”.

Q: What about the “GSK-3β phosphorylation of I-2” value (GSK-3β) of the same compound?
A: Its value is “partially inhibited”.

Q: For CC(Oc1ccc(O)cc1)(P(=O)(O)O)P(=O)(O)O [L-690,330], which “level of inhibition of IMPase activity in vivo compared with 10 nl of 0.3 M LiCl” value [1] is on record?
A: Its value is “several times greater”.

Q: What about the “potency as inhibitor of IMPase activity relative to lithium” value (IMPase) of the same compound?
A: Its value is “approximately thousand-fold”.

Q: What about the pIC50 ([2]; read-out: concentration giving 50% inhibition of in vitro IMPase activity, lysates prepared from Xenopus embryos) of the same compound?
A: The pIC50 was about 6.00.

Q: And the pIC50 ([2]; read-out: concentration of L-690,330 giving approximately 50% inhibition of IMPase activity, FIG. 1 Panel A legend)?
A: The pIC50 was about 3.00.

Q: And the “dorsalization of Xenopus embryo” value (Xenopus laevis embryo; 0.3 M LiCl for 6 minutes at 32-cell stage, or injection of 10 nl of 5 mM L-690,330)?
A: Its value is “did not exhibit dorsalization”.

Q: And the “toxicity in microinjected embryos” value (Xenopus laevis embryo; highest doses of L-690,330 used)?
A: Its value is “mild nonspecific toxicity”.

Q: And the “effect on development of Xenopus embryos” value (Xenopus laevis embryo; microinjected embryos)?
A: Its value is “no discernible effect”.

Q: With Cn1cc(C2=C(c3cn(CCCSC(=N)N)c4ccccc34)C(=O)NC2=O)c2ccccc21 [Ro31-8220] as the compound, how does the pIC50 (GSK-3β; read-out: concentration giving approximately 50% inhibition of GSK-3β activity, assays of Example 1, 0 to 10 μM tested) read?
A: The pIC50 was about 7.40.

Q: For [Cl-].[Cs+] [CsCl], which “inhibition of phosphorylation … by GSK-3β” value (GSK-3β) is on record?
A: Its value is “Little inhibition”.
